This is an account of results in patent US20130245081A1, “Compositions and Methods for Treating Amyotrophic Lateral Sclerosis” (priority 2009, published 2013).

Data set [1] has as its system patients with ALS. The settings on record: Part 1.
Data set [2] concerns rodents. To be noted: single oral dose; cited from earlier work.
The subject of data set [3] is dogs. The settings on record: single oral dose; cited from earlier work.
The subject of data set [4] is monkeys. To be noted: single oral dose; cited from earlier work.
Data set [5] concerns human subjects. To be noted: in vivo; cited from earlier work.
The test system of data set [6] is rodents. Put plainly: Single dose toxicity after oral administration, rodents. The settings on record: in vivo.

SMILES strings stand for the structures.

Consider `Nc1nc2ccc(OC(F)(F)F)cc2s1` [riluzole, reference compound], for which the “effect of riluzole on change from baseline in ALSFRS-R scores” value in data set [1] (across all treatment groups) is “no effect”. Also, the “mean change from baseline to study endpoint in ALSFRS-R score” value in data set [1] (placebo with riluzole) is −3.6.
Turning to `CCCN[C@H]1CCc2nc(N)sc2C1` [pramipexole, (6S)-2-amino-4,5,6,7-tetrahydro-6-(propylamino)benzothiazole], in data set [2], the “doses at which death occurred” value is 70 to 105 mg/kg. Besides, the “dose at which vomiting occurred” value in data set [3] is ≥ 0.0007 mg/kg. In addition, the “dose at which major excitation was displayed” value in data set [4] is reported as 3.5 mg/kg. Also, in data set [5], the “dose shown to cause somnolence in humans” value is reported as 1.5 mg, the “initial single dose not tolerated” value was “greater than 0.20 mg” and the “maximally tolerated dose for humans (Mirapex product insert)” value is 4.5 mg/day. In data set [6], the “human dose equivalent to the lethal rodent dose” value was 7 to 12 mg/kg and the “human dose equivalent to the lethal rodent dose for a 70 kg individual” value was in the range of 500 to 850 mg.
